{
  "source": "patent US8715621B2",
  "about": "“Radical polarizing agents for dynamic nuclear polarization” (Massachusetts Institute of Technology, priority 2012, dated 2014)",
  "key": {"[1]": {"assay": "EPR spectrum: line width, aggregation, dimerization", "conditions": "solution, glass or solid"}, "Stability in air": {"assay": "Stability in air", "assay_type": "physicochemical"}, "[2]": {"assay": "Solubility in water / aqueous media", "assay_type": "physicochemical"}},
  "data": [
    {"substance": "1,3-bisdiphenylene-2-phenylallyl [BDPA]", "values": [
      {"measurement": "aggregate formation or radical dimerization", "setting": "[1]", "value": "no dimerization in solid or in solution"},
      {"measurement": "air stability", "setting": "Stability in air", "value": "air stable"},
      {"measurement": "solubility in water / aqueous media", "setting": "[2]", "value": "lack of solubility in aqueous media"}
    ]}
  ]
}
